Test results from PubChem BioAssay (NCI).
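Briefly, cells in 96-well plates were exposed to five compound concentrations for 48 h, and endpoints were estimated by linear interpolation. Definition used: TGI = concentration required for complete inhibition of growth.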

Assays:
Assay in all cases: DTP human tumour cell line panel, 48 h
786-0 renal = system: 786-0 renal
A549 NSCLC = system: A549 NSCLC
ACHN renal = system: ACHN renal
BT-549 breast = system: BT-549 breast
CAKI-1 renal = system: CAKI-1 renal
CCRF-CEM leukemia = system: CCRF-CEM leukemia
COLO 205 colon = system: COLO 205 colon
DU-145 prostate = system: DU-145 prostate
HCC-2998 colon = system: HCC-2998 colon
HCT-116 colon = system: HCT-116 colon
HCT-15 colon = system: HCT-15 colon
HL-60(TB) leukemia = system: HL-60(TB) leukemia
HOP-62 NSCLC = system: HOP-62 NSCLC
HOP-92 NSCLC = system: HOP-92 NSCLC
HS 578T breast = system: HS 578T breast
HT29 colon = system: HT29 colon
IGROV1 ovarian = system: IGROV1 ovarian
K-562 leukemia = system: K-562 leukemia
KM12 colon = system: KM12 colon
LOX IMVI melanoma = system: LOX IMVI melanoma
M14 melanoma = system: M14 melanoma
MALME-3M melanoma = system: MALME-3M melanoma
MCF7 breast = system: MCF7 breast
MDA-MB-435 = system: MDA-MB-435
MDA-N = system: MDA-N
MOLT-4 leukemia = system: MOLT-4 leukemia
NCI-H23 lung = system: NCI-H23 lung
NCI-H460 lung = system: NCI-H460 lung
NCI/ADR-RES ovarian = system: NCI/ADR-RES ovarian
OVCAR-3 ovarian = system: OVCAR-3 ovarian
OVCAR-4 ovarian = system: OVCAR-4 ovarian
OVCAR-5 ovarian = system: OVCAR-5 ovarian
PC-3 prostate = system: PC-3 prostate
RPMI-8226 leukemia = system: RPMI-8226 leukemia
RXF 393 renal = system: RXF 393 renal
SF-268 CNS = system: SF-268 CNS
SF-295 CNS = system: SF-295 CNS
SF-539 CNS = system: SF-539 CNS
SK-MEL-2 melanoma = system: SK-MEL-2 melanoma
SK-MEL-28 melanoma = system: SK-MEL-28 melanoma
SK-MEL-5 melanoma = system: SK-MEL-5 melanoma
SK-OV-3 ovarian = system: SK-OV-3 ovarian
SN12C renal = system: SN12C renal
SNB-19 CNS = system: SNB-19 CNS
SNB-75 CNS = system: SNB-75 CNS
SR leukemia = system: SR leukemia
SW-620 colon = system: SW-620 colon
TK-10 renal = system: TK-10 renal
U251 CNS = system: U251 CNS
UACC-257 melanoma = system: UACC-257 melanoma
UACC-62 melanoma = system: UACC-62 melanoma
UO-31 renal = system: UO-31 renal
A498 renal = system: A498 renal
EKVX NSCLC = system: EKVX NSCLC
MDA-MB-231 breast = system: MDA-MB-231 breast
OVCAR-8 ovarian = system: OVCAR-8 ovarian
T-47D breast = system: T-47D breast

## COc1ccc(-c2c3c(n(C4OC(COC(C)=O)C(OC(C)=O)C(OC(C)=O)C4OC(C)=O)c(=S)c2C#N)CCC3)cc1 (configuration not stated)
786-0 renal
  TGI: > 100 µM
A549 NSCLC
  TGI: > 100 µM
ACHN renal
  TGI: > 100 µM
BT-549 breast
  TGI: > 100 µM
CAKI-1 renal
  TGI: > 100 µM
CCRF-CEM leukemia
  TGI: > 100 µM
COLO 205 colon
  TGI: > 100 µM
DU-145 prostate
  TGI: > 100 µM
HCC-2998 colon
  TGI: > 100 µM
HCT-116 colon
  TGI: > 100 µM
HCT-15 colon
  TGI: > 100 µM
HL-60(TB) leukemia
  TGI: > 100 µM
HOP-62 NSCLC
  TGI: > 100 µM
HOP-92 NSCLC
  TGI: 49.3 µM
HS 578T breast
  TGI: > 100 µM
HT29 colon
  TGI: > 100 µM
IGROV1 ovarian
  TGI: > 100 µM
K-562 leukemia
  TGI: > 100 µM
KM12 colon
  TGI: > 100 µM
LOX IMVI melanoma
  TGI: > 100 µM
M14 melanoma
  TGI: > 100 µM
MALME-3M melanoma
  TGI: > 100 µM
MCF7 breast
  TGI: > 100 µM
MDA-MB-435
  TGI: > 100 µM
MDA-N
  TGI: > 100 µM
MOLT-4 leukemia
  TGI: > 100 µM
NCI-H23 lung
  TGI: > 100 µM
NCI-H460 lung
  TGI: > 100 µM
NCI/ADR-RES ovarian
  TGI: > 100 µM
OVCAR-3 ovarian
  TGI: > 100 µM
OVCAR-4 ovarian
  TGI: > 100 µM
OVCAR-5 ovarian
  TGI: > 100 µM
PC-3 prostate
  TGI: > 100 µM
RPMI-8226 leukemia
  TGI: > 100 µM
RXF 393 renal
  TGI: > 100 µM
SF-268 CNS
  TGI: > 100 µM
SF-295 CNS
  TGI: > 100 µM
SF-539 CNS
  TGI: > 100 µM
SK-MEL-2 melanoma
  TGI: > 100 µM
SK-MEL-28 melanoma
  TGI: > 100 µM
SK-MEL-5 melanoma
  TGI: > 100 µM
SK-OV-3 ovarian
  TGI: > 100 µM
SN12C renal
  TGI: > 100 µM
SNB-19 CNS
  TGI: > 100 µM
SNB-75 CNS
  TGI: > 100 µM
SR leukemia
  TGI: > 100 µM
SW-620 colon
  TGI: > 100 µM
TK-10 renal
  TGI: > 100 µM
U251 CNS
  TGI: > 100 µM
UACC-257 melanoma
  TGI: > 100 µM
UACC-62 melanoma
  TGI: > 100 µM
UO-31 renal
  TGI: > 100 µM

## O=c1cc(CSc2c(-c3ccccc3)c(=O)n(-c3ccccc3)c(=S)n2-c2ccccc2)[nH]c(=O)[nH]1
786-0 renal
  TGI: > 100 µM
A498 renal
  TGI: > 100 µM
A549 NSCLC
  TGI: > 100 µM
ACHN renal
  TGI: > 100 µM
BT-549 breast
  TGI: > 100 µM
CAKI-1 renal
  TGI: > 100 µM
CCRF-CEM leukemia
  TGI: > 100 µM
COLO 205 colon
  TGI: > 100 µM
DU-145 prostate
  TGI: > 100 µM
EKVX NSCLC
  TGI: > 100 µM
HCC-2998 colon
  TGI: > 100 µM
HCT-116 colon
  TGI: > 100 µM
HCT-15 colon
  TGI: > 100 µM
HL-60(TB) leukemia
  TGI: > 100 µM
HOP-62 NSCLC
  TGI: > 100 µM
HT29 colon
  TGI: > 100 µM
IGROV1 ovarian
  TGI: > 100 µM
K-562 leukemia
  TGI: > 100 µM
KM12 colon
  TGI: > 100 µM
M14 melanoma
  TGI: > 100 µM
MCF7 breast
  TGI: > 100 µM
MDA-MB-231 breast
  TGI: > 100 µM
MDA-MB-435
  TGI: > 100 µM
MDA-N
  TGI: > 100 µM
MOLT-4 leukemia
  TGI: > 100 µM
NCI-H460 lung
  TGI: > 100 µM
NCI/ADR-RES ovarian
  TGI: > 100 µM
OVCAR-3 ovarian
  TGI: > 100 µM
OVCAR-5 ovarian
  TGI: > 100 µM
OVCAR-8 ovarian
  TGI: > 100 µM
PC-3 prostate
  TGI: > 100 µM
RPMI-8226 leukemia
  TGI: > 100 µM
RXF 393 renal
  TGI: > 100 µM
SF-268 CNS
  TGI: > 100 µM
SF-539 CNS
  TGI: > 100 µM
SK-MEL-2 melanoma
  TGI: > 100 µM
SK-MEL-28 melanoma
  TGI: > 100 µM
SK-MEL-5 melanoma
  TGI: > 100 µM
SK-OV-3 ovarian
  TGI: > 100 µM
SN12C renal
  TGI: > 100 µM
SNB-19 CNS
  TGI: > 100 µM
SNB-75 CNS
  TGI: > 100 µM
SR leukemia
  TGI: > 100 µM
SW-620 colon
  TGI: > 100 µM
T-47D breast
  TGI: > 100 µM
TK-10 renal
  TGI: > 100 µM
U251 CNS
  TGI: > 100 µM
UACC-257 melanoma
  TGI: > 100 µM
UACC-62 melanoma
  TGI: > 100 µM
UO-31 renal
  TGI: > 100 µM
